Reference: the supplement of paper PMC10307832

Key:
Test in all cases: relative viability (nuclei count vs DMSO), 5 days (fraction); higher = more cells survive
[1] = compound: Cc1nc(Nc2ncc(C(=O)Nc3c(C)cccc3Cl)s2)cc(N2CCN(CCO)CC2)n1 [Dasatinib] + C[C@]1(O)C[C@@H](c2nc(-c3ccc4ccc(-c5ccccc5)nc4c3)c3c(N)nccn32)C1 [Linsitinib] (partner 1 µM)
Method in brief: (§1)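 One day after seeding in 1536-well plates, lung cancer cell lines were dosed by pin tool. Dosing was either single-drug or a fixed anchor-drug dose plus five library-drug doses (not always all listed) in √10 steps. After 5 days, nuclei were stained in one fix-and-stain step and counted on 4× images, and relative viability is the nuclei count of treated wells over that of vehicle wells, given as the median of duplicate plates.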

[2] = compound: Cc1ccc(C(=O)Nc2cccc(C(F)(F)F)c2)cc1Nc1cncc(C(N)=O)c1 [ALW-II-49-7] + NC(=O)Nc1cc(-c2cccc(F)c2)sc1C(=O)N[C@H]1CCCNC1 [AZD7762] (partner 0.2 µM)
Method in brief: as §1

[3] = compound: C1CC1C(=O)NC2=NNC3=C2C=CC(=C3)C4=CC(=CC=C4)C(=O)NC5CC5 [XMD13-2] + C[C@@H](Oc1cc(-c2cnn(C3CCNCC3)c2)cnc1N)c1c(Cl)ccc(F)c1Cl [Crizotinib] (partner 1 µM)
Method in brief: as §1

[4] = compound: Cc1ccc(C(=O)Nc2cccc(C(F)(F)F)c2)cc1Nc1cncc(C(N)=O)c1 [ALW-II-49-7] + CS(=O)(=O)N1CCN(Cc2cc3nc(-c4cccc5[nH]ncc45)nc(N4CCOCC4)c3s2)CC1 [Pictilisib] (partner 1 µM)
Method in brief: as §1

Cell Line | relative viability ([1]; first compound 0.005 µM) | relative viability ([1]; first compound 0.01581 µM) | relative viability ([1]; first compound 0.05 µM) | relative viability ([1]; first compound 0.1581 µM) | relative viability ([1]; first compound 0.5 µM) | relative viability ([2]; first compound 0.08 µM) | relative viability ([2]; first compound 0.253 µM) | relative viability ([2]; first compound 0.8 µM) | relative viability ([2]; first compound 2.53 µM) | relative viability ([2]; first compound 8 µM) | relative viability ([3]; first compound 0.05 µM) | relative viability ([3]; first compound 0.1581 µM) | relative viability ([3]; first compound 0.5 µM) | relative viability ([3]; first compound 1.581 µM) | relative viability ([3]; first compound 5 µM) | relative viability ([4]; first compound 0.08 µM) | relative viability ([4]; first compound 0.253 µM) | relative viability ([4]; first compound 0.8 µM) | relative viability ([4]; first compound 2.53 µM) | relative viability ([4]; first compound 8 µM)
HCC-44 | 0.619 | 0.51 | 0.669 | 0.27 | 0.131 | 0.992 | 1.02 | 1.03 | 1.03 | 0.964 | 0.789 | 0.814 | 0.75 | 0.772 | 0.755 | 0.513 | 0.693 | 0.638 | 0.535 | 0.646
HCC-78 | 0.376 | 0.447 | 0.408 | 0.363 | 0.24 | 0.614 | 0.693 | 0.684 | 0.611 | 0.713 | 0.373 | 0.356 | 0.34 | 0.35 | 0.309 | 0.192 | 0.188 | 0.203 | 0.268 | 0.192
HCC-366 | 0.122 | 0.0525 | 0.067 | 0.0321 | 0.04 | 0.264 | 0.259 | 0.24 | 0.245 | 0.203 | 0.616 | 0.527 | 0.688 | 0.529 | 0.65 | 0.13 | 0.142 | 0.148 | 0.0944 | 0.217
HCC-827 | 1.03 | 1.05 | 0.971 | 0.581 | 0.102 | 0.208 | 0.241 | 0.187 | 0.183 | 0.19 | 0.974 | 0.923 | 0.906 | 0.807 | 0.682 | 0.988 | 1.03 | 0.887 | 0.815 | 1.03
IA-LM | 0.787 | 0.732 | 0.65 | 0.712 | 0.475 |  |  |  |  |  | 0.674 | 0.794 | 0.65 | 0.664 | 0.528 | 0.334 | 0.281 | 0.388 | 0.209 | 0.288
NCI-H520 | 0.719 | 0.598 | 0.453 | 0.249 | 0.19 |  |  |  |  |  | 0.962 | 0.681 | 0.682 | 0.672 | 0.403 | 0.234 | 0.302 |  | 0.264 | 0.259
NCI-H522 |  |  |  |  |  | 0.787 | 0.842 | 0.754 | 0.83 | 0.934 |  |  |  |  |  |  |  |  |  | 
NCI-H661 | 0.43 | 0.329 | 0.31 | 0.236 | 0.215 |  |  |  |  |  | 0.985 | 1.02 | 0.864 | 0.887 | 0.875 | 0.377 | 0.345 | 0.348 |  | 0.351
NCI-H1299 | 0.978 | 0.996 | 0.93 | 0.286 | 0.146 |  |  |  |  |  | 1.02 | 0.954 | 0.99 | 0.948 | 0.904 | 0.623 | 0.78 | 0.609 | 0.436 | 0.311
NCI-H1395 | 1.24 | 1.05 | 0.887 | 0.451 | 0.343 | 0.381 | 0.43 | 0.364 |  | 0.362 |  |  |  |  |  | 0.646 | 1.05 | 0.653 | 0.581 | 0.62
NCI-H1563 | 0.961 | 0.794 | 0.779 | 0.761 | 0.601 |  |  |  |  |  | 0.91 | 0.898 | 0.77 | 0.852 | 1.02 | 0.573 | 0.661 | 0.643 | 0.595 | 0.657
NCI-H1648 |  |  |  |  |  | 0.62 | 0.697 | 0.74 | 0.678 | 0.618 |  |  |  |  |  |  |  |  |  | 
NCI-H1650 |  |  |  |  |  |  |  |  |  |  | 1.31 | 0.861 | 1.02 | 0.989 | 1.16 | 0.583 | 0.5 | 0.581 | 0.618 | 0.6
NCI-H1793 | 0.524 | 0.644 | 0.553 | 0.506 | 0.472 | 0.412 | 0.436 | 0.487 | 0.417 | 0.289 |  |  |  |  |  | 0.371 | 0.333 | 0.293 | 0.396 | 0.286
NCI-H2009 | 1.21 | 1.02 | 1.23 | 0.821 | 0.193 |  |  |  |  |  | 1.09 | 1.03 | 1.05 | 1 | 1.12 | 0.836 | 0.828 | 0.783 | 0.575 | 0.438
NCI-H2023 | 0.439 | 0.384 | 0.426 | 0.329 | 0.188 |  |  |  |  |  | 0.738 | 0.592 | 0.62 | 0.556 | 0.809 | 0.244 | 0.206 | 0.251 | 0.221 | 0.217
NCI-H2170 |  |  |  |  |  | 1.03 | 0.775 | 0.833 | 0.835 | 0.817 | 1.27 | 1.17 | 1.34 | 1.19 | 1.16 | 0.25 | 0.302 | 0.294 | 0.317 | 0.286
NCI-H2228 | 0.629 | 0.593 | 0.649 | 0.326 | 0.215 |  |  |  |  |  | 0.714 | 0.442 | 0.496 | 0.445 | 0.513 | 0.477 | 0.464 | 0.428 | 0.34 | 0.254
NCI-H2342 |  |  |  |  |  | 0.506 | 0.498 | 0.419 | 0.408 | 0.484 |  |  |  |  |  |  |  |  |  | 
SK-LU-1 | 0.636 | 0.445 | 0.435 | 0.261 | 0.242 |  |  |  |  |  | 0.912 | 0.966 | 1 | 0.828 | 0.944 | 0.522 | 0.715 | 0.44 |  | 0.514
SK-MES-1 | 1.11 | 1.08 | 0.937 | 0.412 | 0.219 |  |  |  |  |  | 1.14 | 1.06 | 1.04 | 0.93 | 1.02 | 0.331 | 0.48 | 0.367 | 0.365 | 0.397
SW 900 |  |  |  |  |  | 0.616 | 0.485 |  | 0.554 | 0.542 |  |  |  |  |  |  |  |  |  | 
SW 1573 | 0.747 | 0.648 | 0.6 | 0.425 | 0.435 |  |  |  |  |  | 1.11 | 0.429 | 0.815 | 0.668 | 0.322 | 0.475 | 0.486 | 0.465 | 0.47 | 0.465
